Key:
Test in all cases: relative viability (nuclei count vs DMSO), 5 days (fraction); higher = more cells survive
RERF-LC-KJ = test system: RERF-LC-KJ
Summary of the method: (§1)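 Five library-drug doses in √10 steps were combined with a fixed anchor-drug dose, or a single drug was given alone, by pin tool to lung cancer cell lines in 1536-well plates the day after seeding. Nuclei were stained and counted after 5 days. Relative viability is the nuclei count in treated wells over that in vehicle wells, taken as the median of duplicate plates.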

NCI-H2347 = test system: NCI-H2347
Summary of the method: as §1

EMC-BAC-2 = test system: EMC-BAC-2
Summary of the method: as §1

NCI-H838 = test system: NCI-H838
Summary of the method: as §1

NCI-H596 = test system: NCI-H596
Summary of the method: as §1

HCC-366 = test system: HCC-366
Summary of the method: as §1

NCI-H3122 = test system: NCI-H3122
Summary of the method: as §1

PC-14 = test system: PC-14
Summary of the method: as §1

NCI-H2405 = test system: NCI-H2405
Summary of the method: as §1

HCC-78 = test system: HCC-78
Summary of the method: as §1

CAL-12T = test system: CAL-12T
Summary of the method: as §1

NCI-H1993 = test system: NCI-H1993
Summary of the method: as §1

LC-2-ad = test system: LC-2-ad
Summary of the method: as §1

ChaGo-K-1 = test system: ChaGo-K-1
Summary of the method: as §1

NCI-H2085 = test system: NCI-H2085
Summary of the method: as §1

HOP-62 = test system: HOP-62
Summary of the method: as §1

LK-2 = test system: LK-2
Summary of the method: as §1

NCI-H1355 = test system: NCI-H1355
Summary of the method: as §1

NCI-H1734 = test system: NCI-H1734
Summary of the method: as §1

O=C(O)CCCCC(CCSCc1ccccc1)SCc1ccccc1 (centres undefined) [CPI-613] + NC(=O)Nc1cc(-c2cccc(F)c2)sc1C(=O)N[C@H]1CCCNC1 [AZD7762] (partner 0.2 µM)
relative viability (RERF-LC-KJ; first compound 5 µM): 0.98
relative viability (RERF-LC-KJ; first compound 15.81 µM): 0.917
relative viability (RERF-LC-KJ; first compound 50 µM): 1
relative viability (RERF-LC-KJ; first compound 158.11 µM): 0.94
relative viability (RERF-LC-KJ; first compound 500 µM): 0.921
relative viability (NCI-H2347; first compound 5 µM): 0.735
relative viability (NCI-H2347; first compound 15.81 µM): 0.787
relative viability (NCI-H2347; first compound 50 µM): 0.715
relative viability (NCI-H2347; first compound 158.11 µM): 0.718
relative viability (NCI-H2347; first compound 500 µM): 0.435
relative viability (EMC-BAC-2; first compound 5 µM): 1.1
relative viability (EMC-BAC-2; first compound 15.81 µM): 1.05
relative viability (EMC-BAC-2; first compound 50 µM): 1.14
relative viability (EMC-BAC-2; first compound 158.11 µM): 0.902
relative viability (EMC-BAC-2; first compound 500 µM): 0.529
relative viability (NCI-H838; first compound 5 µM): 0.977
relative viability (NCI-H838; first compound 15.81 µM): 0.935
relative viability (NCI-H838; first compound 50 µM): 0.893
relative viability (NCI-H838; first compound 158.11 µM): 0.844
relative viability (NCI-H838; first compound 500 µM): 0.912
relative viability (NCI-H596; first compound 5 µM): 1.16
relative viability (NCI-H596; first compound 15.81 µM): 0.939
relative viability (NCI-H596; first compound 50 µM): 1.11
relative viability (NCI-H596; first compound 158.11 µM): 0.818
relative viability (NCI-H596; first compound 500 µM): 0.0374
relative viability (HCC-366; first compound 5 µM): 0.256
relative viability (HCC-366; first compound 15.81 µM): 0.203
relative viability (HCC-366; first compound 50 µM): 0.282
relative viability (HCC-366; first compound 158.11 µM): 0.138
relative viability (HCC-366; first compound 500 µM): 0.0061
relative viability (NCI-H3122; first compound 5 µM): 0.989
relative viability (NCI-H3122; first compound 15.81 µM): 0.977
relative viability (NCI-H3122; first compound 50 µM): 1.01
relative viability (NCI-H3122; first compound 158.11 µM): 0.973
relative viability (NCI-H3122; first compound 500 µM): 0.842
relative viability (PC-14; first compound 5 µM): 0.349
relative viability (PC-14; first compound 15.81 µM): 0.252
relative viability (PC-14; first compound 50 µM): 0.296
relative viability (PC-14; first compound 158.11 µM): 0.256
relative viability (PC-14; first compound 500 µM): 0.16
relative viability (NCI-H2405; first compound 5 µM): 0.755
relative viability (NCI-H2405; first compound 15.81 µM): 0.63
relative viability (NCI-H2405; first compound 50 µM): 0.736
relative viability (NCI-H2405; first compound 158.11 µM): 0.557
relative viability (NCI-H2405; first compound 500 µM): 0.235
relative viability (HCC-78; first compound 15.81 µM): 0.606
relative viability (HCC-78; first compound 50 µM): 0.674
relative viability (HCC-78; first compound 158.11 µM): 0.543
relative viability (HCC-78; first compound 500 µM): 0.738
relative viability (CAL-12T; first compound 5 µM): 0.624
relative viability (CAL-12T; first compound 15.81 µM): 0.457
relative viability (CAL-12T; first compound 50 µM): 0.509
relative viability (CAL-12T; first compound 158.11 µM): 0.541
relative viability (CAL-12T; first compound 500 µM): 0.469
relative viability (NCI-H1993; first compound 5 µM): 0.743
relative viability (NCI-H1993; first compound 15.81 µM): 0.688
relative viability (NCI-H1993; first compound 50 µM): 0.65
relative viability (NCI-H1993; first compound 158.11 µM): 0.537
relative viability (NCI-H1993; first compound 500 µM): 0.286
relative viability (LC-2-ad; first compound 5 µM): 0.771
relative viability (LC-2-ad; first compound 15.81 µM): 0.813
relative viability (LC-2-ad; first compound 50 µM): 0.825
relative viability (LC-2-ad; first compound 158.11 µM): 0.283
relative viability (LC-2-ad; first compound 500 µM): 0.01
relative viability (ChaGo-K-1; first compound 5 µM): 0.827
relative viability (ChaGo-K-1; first compound 15.81 µM): 0.778
relative viability (ChaGo-K-1; first compound 50 µM): 0.85
relative viability (ChaGo-K-1; first compound 158.11 µM): 0.536
relative viability (ChaGo-K-1; first compound 500 µM): 0.436
relative viability (NCI-H2085; first compound 5 µM): 0.895
relative viability (NCI-H2085; first compound 15.81 µM): 0.785
relative viability (NCI-H2085; first compound 50 µM): 0.895
relative viability (NCI-H2085; first compound 158.11 µM): 0.856
relative viability (NCI-H2085; first compound 500 µM): 0.209
relative viability (HOP-62; first compound 5 µM): 0.703
relative viability (HOP-62; first compound 15.81 µM): 0.398
relative viability (HOP-62; first compound 50 µM): 0.649
relative viability (HOP-62; first compound 158.11 µM): 0.235
relative viability (HOP-62; first compound 500 µM): 0.216
relative viability (LK-2; first compound 5 µM): 0.408
relative viability (LK-2; first compound 15.81 µM): 0.359
relative viability (LK-2; first compound 50 µM): 0.343
relative viability (LK-2; first compound 158.11 µM): 0.355
relative viability (LK-2; first compound 500 µM): 0.289
relative viability (NCI-H1355; first compound 5 µM): 0.721
relative viability (NCI-H1355; first compound 15.81 µM): 0.741
relative viability (NCI-H1355; first compound 50 µM): 0.772
relative viability (NCI-H1355; first compound 158.11 µM): 0.52
relative viability (NCI-H1355; first compound 500 µM): 0.185
relative viability (NCI-H1734; first compound 5 µM): 0.505
relative viability (NCI-H1734; first compound 15.81 µM): 0.482
relative viability (NCI-H1734; first compound 50 µM): 0.413
relative viability (NCI-H1734; first compound 158.11 µM): 0.272
relative viability (NCI-H1734; first compound 500 µM): 0.0982

From the supplement of paper PMC10307832
